Counter-ions that a name gives are not always drawn. Like-named read-outs stand apart in the source and are kept apart here.
What was measured:
[1] = biological target: T1, human α1D adrenergic receptor (Homo sapiens, UniProt P25100); experiment: Binding affinity at the human α1D adrenergic receptor; conditions: Table 3d; read-out: hα1D Ki
T1 construct: expressed in transfected cells
T1 sequence (P25100 1-572): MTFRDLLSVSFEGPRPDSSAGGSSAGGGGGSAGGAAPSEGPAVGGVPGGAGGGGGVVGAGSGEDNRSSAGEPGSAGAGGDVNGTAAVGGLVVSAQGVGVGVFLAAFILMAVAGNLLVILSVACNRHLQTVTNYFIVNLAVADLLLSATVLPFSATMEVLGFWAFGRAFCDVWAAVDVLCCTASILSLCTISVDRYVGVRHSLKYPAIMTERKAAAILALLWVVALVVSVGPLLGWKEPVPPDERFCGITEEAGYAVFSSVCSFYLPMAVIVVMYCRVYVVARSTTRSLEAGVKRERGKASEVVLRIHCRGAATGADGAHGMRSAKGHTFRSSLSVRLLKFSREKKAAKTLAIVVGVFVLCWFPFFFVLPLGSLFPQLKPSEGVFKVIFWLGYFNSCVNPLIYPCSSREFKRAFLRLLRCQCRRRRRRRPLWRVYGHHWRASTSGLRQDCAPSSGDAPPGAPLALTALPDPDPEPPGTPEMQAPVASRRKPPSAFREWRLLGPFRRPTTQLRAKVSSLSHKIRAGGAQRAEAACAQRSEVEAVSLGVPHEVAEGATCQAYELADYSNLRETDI
Excerpt: (§1) Other receptors: Cell membranes expressing human dopamine D1, D2, D4 and rat D3 receptors were purchased through BioSignal, Inc. (Montreal, Canada). Binding assays using the histamine H1 receptor; dopamine receptors; and α1A, α1B, and α2 adrenergic receptors may be carried out according to the procedures described in U.S. Pat. No. 5,780,485, the disclosure of which is hereby incorporated by reference in its entirety into this application. Binding assays using the dopamine D5 receptor may be carried out according to the procedures described in U.S. Pat. No. 5,882,855, the disclosure of which is hereby incorporated by reference in its entirety into this application. Binding assays for the human α1D adrenergic receptor may be carried out according to the procedures described in U.S. Pat. No. 6,156,518, the disclosure of which is hereby incorporated by reference in its entirety into this application.

human α2A adrenoceptor = biological target: T2, human α2A adrenoceptor (Homo sapiens, UniProt P08913); experiment: Binding affinity at the human α2A adrenergic receptor
T2 construct: expressed in transfected cells
T2 sequence (P08913 1-465): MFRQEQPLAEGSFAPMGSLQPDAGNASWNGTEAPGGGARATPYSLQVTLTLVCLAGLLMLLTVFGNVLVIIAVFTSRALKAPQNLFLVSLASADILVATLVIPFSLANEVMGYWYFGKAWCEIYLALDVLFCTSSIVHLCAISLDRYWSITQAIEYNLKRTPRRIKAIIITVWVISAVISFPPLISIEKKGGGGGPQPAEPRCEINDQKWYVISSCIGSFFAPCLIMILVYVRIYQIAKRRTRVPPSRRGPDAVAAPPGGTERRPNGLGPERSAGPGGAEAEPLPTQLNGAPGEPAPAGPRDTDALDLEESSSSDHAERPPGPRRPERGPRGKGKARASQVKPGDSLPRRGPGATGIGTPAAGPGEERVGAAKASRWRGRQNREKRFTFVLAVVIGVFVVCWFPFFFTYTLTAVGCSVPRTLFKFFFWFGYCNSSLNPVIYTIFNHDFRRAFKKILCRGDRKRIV
Excerpt: as §1

human α2C adrenoceptor = biological target: T3, human α2C adrenoceptor (Homo sapiens, UniProt P18825); experiment: Binding affinity at the human α2C adrenergic receptor
T3 construct: expressed in transfected cells
T3 sequence (P18825 1-462): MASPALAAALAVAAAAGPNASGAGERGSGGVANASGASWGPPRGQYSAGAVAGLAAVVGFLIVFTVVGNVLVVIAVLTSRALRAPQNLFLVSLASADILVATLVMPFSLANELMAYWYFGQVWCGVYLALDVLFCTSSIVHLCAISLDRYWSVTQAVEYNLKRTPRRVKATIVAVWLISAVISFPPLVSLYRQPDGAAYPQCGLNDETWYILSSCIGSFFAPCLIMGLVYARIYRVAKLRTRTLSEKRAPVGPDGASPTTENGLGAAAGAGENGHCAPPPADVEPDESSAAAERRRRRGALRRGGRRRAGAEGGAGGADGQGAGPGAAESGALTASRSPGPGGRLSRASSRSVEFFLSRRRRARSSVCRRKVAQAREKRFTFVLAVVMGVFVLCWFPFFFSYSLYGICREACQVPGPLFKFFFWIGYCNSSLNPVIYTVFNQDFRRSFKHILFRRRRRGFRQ
Excerpt: as §1

human α1B adrenoceptor = biological target: T4, human α1B adrenoceptor (Homo sapiens, UniProt P35368); experiment: Binding affinity at the human α1B adrenergic receptor; conditions: Table 3d; read-out: hα1B Ki
T4 construct: expressed in transfected cells
T4 sequence (P35368 1-520): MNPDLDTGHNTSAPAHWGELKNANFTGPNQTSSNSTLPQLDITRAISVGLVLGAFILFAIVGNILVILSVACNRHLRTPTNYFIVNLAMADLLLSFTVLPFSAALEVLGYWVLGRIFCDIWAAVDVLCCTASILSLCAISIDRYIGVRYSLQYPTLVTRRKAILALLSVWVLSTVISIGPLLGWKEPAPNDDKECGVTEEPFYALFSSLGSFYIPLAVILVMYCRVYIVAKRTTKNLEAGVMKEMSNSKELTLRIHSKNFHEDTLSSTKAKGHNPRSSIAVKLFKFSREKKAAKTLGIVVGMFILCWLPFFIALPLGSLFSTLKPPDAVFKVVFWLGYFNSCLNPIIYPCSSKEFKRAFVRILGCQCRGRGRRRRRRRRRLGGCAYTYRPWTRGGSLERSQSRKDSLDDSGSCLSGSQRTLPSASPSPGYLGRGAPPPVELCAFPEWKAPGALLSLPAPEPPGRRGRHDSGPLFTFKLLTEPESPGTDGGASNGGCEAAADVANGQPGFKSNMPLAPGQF
Excerpt: as §1

human α2B adrenoceptor = biological target: T5, human α2B adrenoceptor (Homo sapiens, UniProt P18089); experiment: Binding affinity at the human α2B adrenergic receptor
T5 construct: expressed in transfected cells
T5 sequence (P18089 1-450): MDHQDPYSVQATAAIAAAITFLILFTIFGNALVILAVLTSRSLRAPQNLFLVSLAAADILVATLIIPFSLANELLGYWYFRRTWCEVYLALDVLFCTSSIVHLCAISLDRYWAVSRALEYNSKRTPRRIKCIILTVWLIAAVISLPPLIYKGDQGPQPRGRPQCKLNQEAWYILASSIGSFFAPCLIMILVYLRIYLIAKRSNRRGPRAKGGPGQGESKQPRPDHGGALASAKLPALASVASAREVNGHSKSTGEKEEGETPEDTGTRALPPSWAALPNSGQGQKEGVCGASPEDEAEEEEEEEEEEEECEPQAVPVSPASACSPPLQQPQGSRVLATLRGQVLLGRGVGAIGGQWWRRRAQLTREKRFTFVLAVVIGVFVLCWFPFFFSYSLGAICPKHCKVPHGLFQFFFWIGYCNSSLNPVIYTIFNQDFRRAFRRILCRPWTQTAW
Excerpt: as §1

| Molecule | Ki [1] [nM] | Ki (human α2A adrenoceptor; Table 3d, read-out: hα2A Ki) [nM] | Ki (human α2C adrenoceptor; Table 3d, read-out: hα2C Ki) [nM] | Ki (human α1B adrenoceptor) [nM] | Ki (human α2B adrenoceptor; Table 3d, read-out: hα2B Ki) [nM] | Ki (human α2A adrenoceptor) [nM] | Ki (human α2C adrenoceptor) [nM] | Ki (human α2B adrenoceptor) [nM] |
| --- | --- | --- | --- | --- | --- | --- | --- | --- |
| 2-(3,4-DIFLUOROPHENYL)4,5-DIHYDROIMIDAZOLE-1-CARBOXYLIC ACID {3-[4-PHENYL-4-(4-BROMO-5-METHYLTHIOPNEN-2-YL)]-PROPYL}-AMIDE [Example 19] | 517 | 285 | 174 | 104 | 349 | – | – | – |
| COC(=O)C1=C(C)NC(=O)N(C(=O)NCCCN2CCC3(CC2)OCc2ccccc23)C1c1ccc2nonc2c1 (single isomer, unassigned) [Example 18, HYDROCHLORIDE] | 612 | – | – | 418 | – | 57 | 96 | 74 |
| COCC1=C(C(=O)OC)C(c2ccc(F)c(F)c2)N(C(=O)NCCCN2CCC(c3cccc(NC(C)=O)c3)CC2)C(=O)N1 (single isomer, unassigned; (-)) [Example 1, (−)-1,2,3,6-TETRAHYDRO-1-{N-[4-(3,-ACETAMIDO)-PHENYLPIPERIDIN-1-YL]PROPYL}CARBOXAMIDO-4-METHOXYMETHYL-6-(3,4-DIFLUORO-PHENYL)-2-OXOPYRIMIDINE-5-CARBOXYLIC ACID METHYL ESTER] | 1310 | – | – | 9030 | – | – | – | – |
| COCC1=C(C(=O)OC)[C@H](c2ccc(F)c(F)c2)N(C(=O)NCCCN2CCC(c3cccc(NC(C)=O)c3)CC2)C(=O)N1 [Example 10, (+)-1,2,3,6-TETRAHYDRO-1-{N-[4-(3,-ACETAMIDO)-PHENYLPIPERIDIN-1-YL]PROPYL}CARBOXAMIDO-4-METHOXYMETHYL-6-(3,4-DIFLUORO-PHENYL)-2-OXOPYRIMIDINE-5-CARBOXYLIC ACID METHYL ESTER] | 12300 | – | – | 11300 | – | – | – | – |
| COC(=O)C1=C(C)NC(=O)N(C(=O)NCCCN2CCC3(CC2)OCc2ccccc23)C1c1ccc(F)c(F)c1 (stereo not shown) [Example 20, 4-(3,4-DIFLUORPHENYL)-6-METHYL-2-OXO-3-{[3-(4-SPIRO[ISOBENZOFURAN-1(3H),4′-PIPERIDINE]PROPYL}-1,2,3,4-TETRAHYDROPYRIMIDINE-5-CARBOXYLIC ACID METHYL ESTER] | 207 | – | 138 | 407 | – | 99 | – | 97 |

Source: patent US20040038855A1 (priority 1999, published 2004)
